Measured values as given in the NIST ThermoML archive (doi:10.1016/j.jct.2018.10.023).

Experiment: wn = mass fraction of the nth substance listed
Conditions: 101 kPa, Liquid, Digital holographic interferometer

[Cl-].[Li+] [lithium chloride] + O
binary diffusion coefficient (298.15 K, w1 = 0.011): 1.31e-09 m2/s
binary diffusion coefficient (298.15 K, w1 = 0.027): 1.23e-09 m2/s

[Cl-].[K+] [potassium chloride] + O
binary diffusion coefficient (298.15 K, w1 = 0.025): 1.85e-09 m2/s

[Cl-].[Na+] [sodium chloride] + O
binary diffusion coefficient (298.15 K, w1 = 0.018): 1.47e-09 m2/s

CCC(C)CO (centres undefined) [2-methyl-1-butanol] + CCCCCCC
binary diffusion coefficient (288.15 K, w1 = 0.05): 1.02e-09 m2/s
binary diffusion coefficient (288.15 K, w1 = 0.15): 8.91e-10 m2/s
binary diffusion coefficient (288.15 K, w1 = 0.25): 7.99e-10 m2/s
binary diffusion coefficient (288.15 K, w1 = 0.35): 6.91e-10 m2/s
binary diffusion coefficient (288.15 K, w1 = 0.45): 6.03e-10 m2/s
binary diffusion coefficient (288.15 K, w1 = 0.55): 5.26e-10 m2/s
binary diffusion coefficient (288.15 K, w1 = 0.65): 4.81e-10 m2/s
binary diffusion coefficient (288.15 K, w1 = 0.75): 4.52e-10 m2/s
binary diffusion coefficient (288.15 K, w1 = 0.85): 4.61e-10 m2/s
binary diffusion coefficient (288.15 K, w1 = 0.95): 4.83e-10 m2/s
binary diffusion coefficient (298.15 K, w1 = 0.05): 1.24e-09 m2/s
binary diffusion coefficient (298.15 K, w1 = 0.15): 1.11e-09 m2/s
binary diffusion coefficient (298.15 K, w1 = 0.25): 1.01e-09 m2/s
binary diffusion coefficient (298.15 K, w1 = 0.35): 9.24e-10 m2/s
binary diffusion coefficient (298.15 K, w1 = 0.45): 8.43e-10 m2/s
binary diffusion coefficient (298.15 K, w1 = 0.55): 7.55e-10 m2/s
binary diffusion coefficient (298.15 K, w1 = 0.65): 7.02e-10 m2/s
binary diffusion coefficient (298.15 K, w1 = 0.75): 6.8e-10 m2/s
binary diffusion coefficient (298.15 K, w1 = 0.85): 6.9e-10 m2/s
binary diffusion coefficient (298.15 K, w1 = 0.95): 7.04e-10 m2/s
binary diffusion coefficient (308.15 K, w1 = 0.05): 1.49e-09 m2/s
binary diffusion coefficient (308.15 K, w1 = 0.15): 1.34e-09 m2/s
binary diffusion coefficient (308.15 K, w1 = 0.25): 1.24e-09 m2/s
binary diffusion coefficient (308.15 K, w1 = 0.35): 1.15e-09 m2/s
binary diffusion coefficient (308.15 K, w1 = 0.45): 1.08e-09 m2/s
binary diffusion coefficient (308.15 K, w1 = 0.55): 9.81e-10 m2/s
binary diffusion coefficient (308.15 K, w1 = 0.65): 9.31e-10 m2/s
binary diffusion coefficient (308.15 K, w1 = 0.75): 9.25e-10 m2/s
binary diffusion coefficient (308.15 K, w1 = 0.85): 9.36e-10 m2/s
binary diffusion coefficient (308.15 K, w1 = 0.95): 9.41e-10 m2/s
binary diffusion coefficient (318.15 K, w1 = 0.05): 1.73e-09 m2/s
binary diffusion coefficient (318.15 K, w1 = 0.15): 1.58e-09 m2/s
binary diffusion coefficient (318.15 K, w1 = 0.25): 1.5e-09 m2/s
binary diffusion coefficient (318.15 K, w1 = 0.35): 1.4e-09 m2/s
binary diffusion coefficient (318.15 K, w1 = 0.45): 1.33e-09 m2/s
binary diffusion coefficient (318.15 K, w1 = 0.55): 1.24e-09 m2/s
binary diffusion coefficient (318.15 K, w1 = 0.65): 1.17e-09 m2/s
binary diffusion coefficient (318.15 K, w1 = 0.75): 1.16e-09 m2/s
binary diffusion coefficient (318.15 K, w1 = 0.85): 1.18e-09 m2/s
binary diffusion coefficient (318.15 K, w1 = 0.95): 1.19e-09 m2/s

CC(C)CCO [3-methylbutan-1-ol] + CCCCCCC
binary diffusion coefficient (288.15 K, w1 = 0.05): 1.74e-09 m2/s
binary diffusion coefficient (288.15 K, w1 = 0.15): 1.25e-09 m2/s
binary diffusion coefficient (288.15 K, w1 = 0.25): 9.07e-10 m2/s
binary diffusion coefficient (288.15 K, w1 = 0.35): 6.95e-10 m2/s
binary diffusion coefficient (288.15 K, w1 = 0.45): 6.1e-10 m2/s
binary diffusion coefficient (288.15 K, w1 = 0.55): 5.7e-10 m2/s
binary diffusion coefficient (288.15 K, w1 = 0.65): 6.18e-10 m2/s
binary diffusion coefficient (288.15 K, w1 = 0.75): 6.65e-10 m2/s
binary diffusion coefficient (288.15 K, w1 = 0.85): 7.11e-10 m2/s
binary diffusion coefficient (288.15 K, w1 = 0.95): 7.46e-10 m2/s
binary diffusion coefficient (298.15 K, w1 = 0.05): 1.99e-09 m2/s
binary diffusion coefficient (298.15 K, w1 = 0.15): 1.52e-09 m2/s
binary diffusion coefficient (298.15 K, w1 = 0.25): 1.17e-09 m2/s
binary diffusion coefficient (298.15 K, w1 = 0.35): 9.75e-10 m2/s
binary diffusion coefficient (298.15 K, w1 = 0.45): 8.69e-10 m2/s
binary diffusion coefficient (298.15 K, w1 = 0.55): 8.42e-10 m2/s
binary diffusion coefficient (298.15 K, w1 = 0.65): 8.91e-10 m2/s
binary diffusion coefficient (298.15 K, w1 = 0.75): 9.46e-10 m2/s
binary diffusion coefficient (298.15 K, w1 = 0.85): 9.85e-10 m2/s
binary diffusion coefficient (298.15 K, w1 = 0.95): 1.01e-09 m2/s
binary diffusion coefficient (308.15 K, w1 = 0.05): 2.28e-09 m2/s
binary diffusion coefficient (308.15 K, w1 = 0.15): 1.83e-09 m2/s
binary diffusion coefficient (308.15 K, w1 = 0.25): 1.44e-09 m2/s
binary diffusion coefficient (308.15 K, w1 = 0.35): 1.27e-09 m2/s
binary diffusion coefficient (308.15 K, w1 = 0.45): 1.15e-09 m2/s
binary diffusion coefficient (308.15 K, w1 = 0.55): 1.13e-09 m2/s
binary diffusion coefficient (308.15 K, w1 = 0.65): 1.17e-09 m2/s
binary diffusion coefficient (308.15 K, w1 = 0.75): 1.22e-09 m2/s
binary diffusion coefficient (308.15 K, w1 = 0.85): 1.29e-09 m2/s
binary diffusion coefficient (308.15 K, w1 = 0.95): 1.32e-09 m2/s
binary diffusion coefficient (318.15 K, w1 = 0.05): 2.54e-09 m2/s
binary diffusion coefficient (318.15 K, w1 = 0.15): 2.09e-09 m2/s
binary diffusion coefficient (318.15 K, w1 = 0.25): 1.75e-09 m2/s
binary diffusion coefficient (318.15 K, w1 = 0.35): 1.55e-09 m2/s
binary diffusion coefficient (318.15 K, w1 = 0.45): 1.43e-09 m2/s
binary diffusion coefficient (318.15 K, w1 = 0.55): 1.4e-09 m2/s
binary diffusion coefficient (318.15 K, w1 = 0.65): 1.46e-09 m2/s
binary diffusion coefficient (318.15 K, w1 = 0.75): 1.52e-09 m2/s
binary diffusion coefficient (318.15 K, w1 = 0.85): 1.56e-09 m2/s
binary diffusion coefficient (318.15 K, w1 = 0.95): 1.58e-09 m2/s
